Measured values reported in US9593149B2, “Amylin and calcitonin receptor agonist” (Novo Nordisk A/S, priority 2014, dated 2017).
Numbered stars: 1 amine (or outer) side, 2 acyl side, 3 side chain; on linkers, the order of the positions; unused ones are H or OH. Square brackets hold non-standard residues; d marks the D form. Side chains are listed from the residue outwards. Peptide text beside a SMILES is read from it. * marks the point of attachment. C20 diacid = O=C(O)CCCCCCCCCCCCCCCCCCC(=O)*; γGlu = O=C(O)[C@H](CCC(=O)[*:2])N[*:1]

Legend:
rat calcitonin receptor = molecular target: T1, rat calcitonin receptor (Rattus norvegicus, UniProt P32214); assay: Assay (VIII) binding to the rat calcitonin receptor; details: membranes; read-out: rCT-R binding IC50
T1 construct: expressed in transfected cells; host or cells: BHK tk'ts 13 (transient, FuGENE 6)
T1 sequence (P32214 25-479 isoform P32214-2 limits assumed): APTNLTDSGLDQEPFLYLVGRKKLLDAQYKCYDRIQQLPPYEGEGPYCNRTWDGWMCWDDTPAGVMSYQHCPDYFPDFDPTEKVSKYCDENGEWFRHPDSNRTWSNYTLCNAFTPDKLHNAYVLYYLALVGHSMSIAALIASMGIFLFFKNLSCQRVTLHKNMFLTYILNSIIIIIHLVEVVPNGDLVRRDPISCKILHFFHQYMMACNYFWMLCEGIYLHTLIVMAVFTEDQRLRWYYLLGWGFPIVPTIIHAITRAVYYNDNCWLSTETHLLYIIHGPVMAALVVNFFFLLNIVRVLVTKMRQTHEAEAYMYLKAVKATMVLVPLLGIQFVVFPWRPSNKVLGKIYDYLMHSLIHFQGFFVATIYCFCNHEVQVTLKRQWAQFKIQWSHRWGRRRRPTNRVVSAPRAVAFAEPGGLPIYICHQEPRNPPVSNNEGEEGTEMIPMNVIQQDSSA
Experimental: The morning after, the plates were washed three times in HBSS (4° C.), and lyzed in Lysis buffer (0.1 M NaOH), 1% SDS. Scintillation cocktail (MicroScint40®) was added and the plates were shaken at 500 rpm for a short period. The plate was incubated at room temperature in the dark for 1 hour and Read on a TopCounter™ (Packard). The IC50 was calculated using (one site binding competition analysis) GraphPad Prism5 as a measure of receptor affinity. Assay (VIII)—Determination of Binding to the Rat Calcitonin Receptor
The assay was performed as described above (Assay (VII)—Determination of binding to the human calcitonin receptor) with the exception that we used membranes prepared from BHK tk'ts 13 cells that were transiently transfected with the rat calcitonin receptor. The BHK tk'ts 13 cells were transiently transfected with rat calcitonin receptor using FuGENE® 6 (Roche), according to the manufacturer's recommendations. Cells were grown in DMEM with 10% FBS and 1% Pen/Strep.

[1] = Assay (IV) determination of solubility; type: physicochemical
Experimental: Assay (IV)—Determination of Solubility
The mimylin peptide was dissolved in water at ˜500 nmol/ml and mixed 1:1 with a series of buffers (100 mM glycylglycine pH 3.0, 100 mM glycylglycine pH 4.0, 100 mM glycylglycine pH 5.0, 100 mM bistrispropane pH 6.0, 100 mM bistrispropane pH 6.5, 100 mM bistrispropane pH 7.0, 100 mM bistrispropane pH 7.5, 100 mM bistrispropane pH 8.0).

IC50 (rat calcitonin receptor)	Solubility ([1]; pH 3.0)	Solubility ([1]; pH 4.0)	Solubility ([1]; pH 5.0)	Solubility ([1]; pH 6.0)	Solubility ([1]; pH 6.5)	Solubility ([1]; pH 7.0)	Solubility ([1]; pH 7.5)	Solubility ([1]; pH 8.0)	Structure (SMILES)
0.017 nM	≧200 μM	≧200 μM	≧200 μM	≧200 μM	≧200 μM	≧200 μM	≧200 μM	≧200 μM	CC(C)C[C@H](NC(=O)[C@H](C)NC(=O)[C@H](C)NC(=O)[C@@H](NC(=O)[C@H](CO)NC(=O)[C@H](CC(C)C)NC(=O)[C@H](CCC(=O)O)NC(=O)[C@H](CO)NC(=O)[C@H](C)NC(=O)CC[C@H](NC(=O)CCCCCCCCCCCCCCCCCCC(=O)O)C(=O)O)[C@@H](C)O)C(=O)NCC(=O)N[C@@H](CCCNC(=N)N)C(=O)N[C@@H](CC(C)C)C(=O)N[C@@H](CO)C(=O)N[C@H](CCC(=O)O)C(=O)N[C@@H](CCC(=O)O)C(=O)N[C@@H](CC(C)C)C(=O)N[C@@H](Cc1cnc[nH]1)C(=O)N[C@@H](CCC(=O)O)C(=O)N[C@@H](CC(C)C)C(=O)N[C@@H](C)C(=O)N[C@H](C(=O)N[C@@H](CC(C)C)C(=O)N1CCC[C@H]1C(=O)N[C@@H](CCCNC(=N)N)C(=O)N[C@H](C(=O)N[C@@H](CCC(=O)O)C(=O)N[C@H](C(=O)NCC(=O)N[C@@H](CO)C(=O)NCC(=O)N[C@@H](CO)C(=O)N1CCC[C@H]1C(N)=O)[C@@H](C)O)[C@@H](C)O)[C@@H](C)O [compound 67, [N-terminal(C20 diacid-gGlu), des1, 15e, 30S, 31G]mimylin] ({C20 diacid-γGlu}-ASELSTAALGRLS[dE]ELHELATLPRTETGSGSP-NH2)
0.071 nM	≧200 μM	≧200 μM	≧200 μM	≧200 μM	≧200 μM	≧200 μM	≧200 μM	≧200 μM	CC(=O)N[C@@H](C)C(=O)N[C@@H](CO)C(=O)N[C@@H](CCC(=O)O)C(=O)N[C@@H](CC(C)C)C(=O)N[C@@H](CO)C(=O)N[C@H](C(=O)N[C@@H](C)C(=O)N[C@@H](C)C(=O)N[C@@H](CC(C)C)C(=O)NCC(=O)N[C@@H](CCCNC(=N)N)C(=O)N[C@@H](CC(C)C)C(=O)N[C@@H](CO)C(=O)N[C@@H](C)C(=O)N[C@@H](CCC(=O)O)C(=O)N[C@@H](CC(C)C)C(=O)N[C@@H](Cc1cnc[nH]1)C(=O)N[C@@H](CCCCNC(=O)CC[C@H](NC(=O)CCCCCCCCCCCCCCCCCCC(=O)O)C(=O)O)C(=O)N[C@@H](CC(C)C)C(=O)N[C@@H](C)C(=O)N[C@H](C(=O)N[C@@H](CC(C)C)C(=O)N1CCC[C@H]1C(=O)N[C@@H](CCCNC(=N)N)C(=O)N[C@H](C(=O)N[C@@H](CCC(=O)O)C(=O)N[C@H](C(=O)NCC(=O)N[C@@H](CO)C(=O)NCC(=O)N[C@@H](CO)C(=O)N1CCC[C@H]1C(N)=O)[C@@H](C)O)[C@@H](C)O)[C@@H](C)O)[C@@H](C)O [compound 70, [N-terminal(acetyl), des1, 19K(C20 diacid-gGlu), 30S, 31G]mimylin] (Ac-ASELSTAALGRLSAELHK([γGlu-C20 diacid])LATLPRTETGSGSP-NH2)

Continued, compound first:

Structure (SMILES)	IC50 (rat calcitonin receptor)	Solubility ([1]; pH 3.0)	Solubility ([1]; pH 4.0)	Solubility ([1]; pH 5.0)	Solubility ([1]; pH 6.0)	Solubility ([1]; pH 6.5)	Solubility ([1]; pH 7.0)	Solubility ([1]; pH 7.5)	Solubility ([1]; pH 8.0)
CC(=O)N[C@@H](C)C(=O)N[C@@H](CO)C(=O)N[C@@H](CCC(=O)O)C(=O)N[C@@H](CC(C)C)C(=O)N[C@@H](CO)C(=O)N[C@H](C(=O)N[C@@H](C)C(=O)N[C@@H](C)C(=O)N[C@@H](CC(C)C)C(=O)NCC(=O)N[C@@H](CCCNC(=N)N)C(=O)N[C@@H](CC(C)C)C(=O)N[C@@H](CO)C(=O)N[C@@H](C)C(=O)N[C@@H](CCCCNC(=O)CC[C@H](NC(=O)CCCCCCCCCCCCCCCCCCC(=O)O)C(=O)O)C(=O)N[C@@H](CC(C)C)C(=O)N[C@@H](Cc1cnc[nH]1)C(=O)N[C@@H](CCC(=O)O)C(=O)N[C@@H](CC(C)C)C(=O)N[C@@H](C)C(=O)N[C@H](C(=O)N[C@@H](CC(C)C)C(=O)N1CCC[C@H]1C(=O)N[C@@H](CCCNC(=N)N)C(=O)N[C@H](C(=O)N[C@@H](CCC(=O)O)C(=O)N[C@H](C(=O)NCC(=O)N[C@@H](CO)C(=O)NCC(=O)N[C@@H](CO)C(=O)N1CCC[C@H]1C(N)=O)[C@@H](C)O)[C@@H](C)O)[C@@H](C)O)[C@@H](C)O [compound 69, [N-terminal(acetyl), des1, 16K(C20 diacid-gGlu), 30S, 31G]mimylin] (Ac-ASELSTAALGRLSAK([γGlu-C20 diacid])LHELATLPRTETGSGSP-NH2)	0.042 nM	≧200 μM	≧200 μM	≧200 μM	≧200 μM	≧200 μM	≧200 μM	≧200 μM	≧200 μM
CC(C)C[C@H](NC(=O)[C@H](C)NC(=O)[C@H](C)NC(=O)[C@@H](NC(=O)[C@H](CO)NC(=O)[C@H](CC(C)C)NC(=O)[C@H](CCC(=O)O)NC(=O)[C@H](CO)NC(=O)[C@H](C)NC(=O)CC[C@H](NC(=O)CCCCCCCCCCCCCCCCCCC(=O)O)C(=O)O)[C@@H](C)O)C(=O)NCC(=O)N[C@@H](Cc1cnc[nH]1)C(=O)N[C@@H](CC(C)C)C(=O)N[C@@H](CO)C(=O)N[C@@H](C)C(=O)N[C@@H](CCC(=O)O)C(=O)N[C@@H](CC(C)C)C(=O)N[C@@H](Cc1cnc[nH]1)C(=O)N[C@@H](CCC(=O)O)C(=O)N[C@@H](CC(C)C)C(=O)N[C@@H](C)C(=O)N[C@H](C(=O)N[C@@H](CC(C)C)C(=O)N1CCC[C@H]1C(=O)N[C@@H](CCCNC(=N)N)C(=O)N[C@H](C(=O)N[C@@H](CCC(=O)O)C(=O)N[C@H](C(=O)NCC(=O)N[C@@H](CO)C(=O)NCC(=O)N[C@@H](CO)C(=O)N1CCC[C@H]1C(N)=O)[C@@H](C)O)[C@@H](C)O)[C@@H](C)O [compound 72, [N-terminal(C20 diacid-gGlu), des1, 12H, 30S, 31G]mimylin] ({C20 diacid-γGlu}-ASELSTAALGHLSAELHELATLPRTETGSGSP-NH2)	0.085 nM	≧200 μM	≧200 μM	≧200 μM	≧200 μM	≧200 μM	≧200 μM	≧200 μM	≧200 μM
CC(C)C[C@H](NC(=O)[C@H](C)NC(=O)[C@H](C)NC(=O)[C@@H](NC(=O)[C@H](CO)NC(=O)[C@H](CC(C)C)NC(=O)[C@H](CCC(=O)O)NC(=O)[C@H](CO)NC(=O)[C@H](C)NC(=O)CC[C@H](NC(=O)CCCCCCCCCCCCCCCCCCC(=O)O)C(=O)O)[C@@H](C)O)C(=O)NCC(=O)N[C@@H](CCCNC(=N)N)C(=O)N[C@@H](CC(C)C)C(=O)N[C@@H](CO)C(=O)N[C@@H](C)C(=O)N[C@@H](CCC(=O)O)C(=O)N[C@@H](CC(C)C)C(=O)N[C@@H](Cc1cnc[nH]1)C(=O)N[C@@H](CCC(=O)O)C(=O)N[C@@H](CC(C)C)C(=O)N[C@@H](C)C(=O)N[C@H](C(=O)N[C@@H](Cc1ccc(O)cc1)C(=O)N1CCC[C@H]1C(=O)N[C@@H](CCCNC(=N)N)C(=O)N[C@H](C(=O)N[C@@H](CCC(=O)O)C(=O)N[C@H](C(=O)NCC(=O)N[C@@H](CO)C(=O)NCC(=O)N[C@@H](C)C(=O)N1CCC[C@H]1C(N)=O)[C@@H](C)O)[C@@H](C)O)[C@@H](C)O [compound 81, [N-terminal(C20 diacid-gGlu), des1, 23Y, 30S, 31G, 32A]mimylin] ({C20 diacid-γGlu}-ASELSTAALGRLSAELHELATYPRTETGSGAP-NH2)	0.039 nM	≧200 μM	≧200 μM	≧200 μM	≧200 μM	≧200 μM	≧200 μM	≧200 μM	≧200 μM
